Laboratory results taken from patent publication US12187755B2, “Minimal saponin analogues, synthesis and use thereof” (MEMORIAL SLOAN-KETTERING CANCER CENTER, priority 2014, dated 2025).
“Also recorded” adds a separate entry of the source.

Key:
[1] = in vivo fluorescence imaging with fluorescein-labeled saponin and OVA-A647; design: species or system mouse; details: 24 h post-injection
Procedure: To address this problem, in vivo fluorescence imaging experiments with fluorescein-labeled active adjuvant 3 (SQS-0-0-5-12) and Alexa-647-conjugated OVA (OVA-A647) were conducted.
Whole-body imaging was performed at 24 h post-injection with a Maestro Imaging System. At 24 h post-injection, mice were sacrificed and the left and right lymph nodes were dissected and imaged separately.

[2] = in vivo; cited from earlier work
[3] = toxicity assessment by mouse weight loss after first vaccination; format: in vivo; details: for toxicity assessed by mouse weight loss: three-component vaccine, median percent weight loss
Procedure: (§1) Groups of five mice (C57BL/6J, female, 6-8 weeks of age) were vaccinated with a three-component vaccine consisting of MUC1-KLH ([…]) and OVA ([…]), or a four-component vaccine that also included GD3-KLH ([…]). Antigens were co-administered with the adjuvant of interest ([…]) or without adjuvant (no-adjuvant control) in phosphate buffered saline (PBS, […]) via subcutaneous injections on days 0, 7, and 14, followed by a booster on day 65. Mouse sera were collected at day 72 and antibody titers against each antigen were determined by ELISA. Statistical significance of each antibody response compared to the no-adjuvant control was assessed using a two-tailed unpaired Student's t-test with CI=95%. As an initial, general assessment of toxicity, mouse weight loss was monitored on days 0, 1, 2, 3, and 7 after the first vaccination. These animal experiments were conducted as described in MSKCC Institutional Animal Care and Use Committee (IACUC) protocol #97-11-051.

[4] = test system: C57BL/6J mice; assay: preclinical mouse vaccination model, three-component vaccine (MUC1-KLH, OVA), antibody titers by ELISA; format: in vivo; details: for antibody titers (anti-KLH, anti-MUC1, anti-OVA IgG): three-component vaccine MUC1-KLH + OVA, s.c. days 0, 7, 14, booster day 65, sera day 72
Procedure: A radioiodine (^131I) was introduced into the QS-21 saponin scaffold to enable in vivo biodistribution studies. The non-radiolabeled aryl iodide 6 (SQS-0-0-5-18) by acylation of amine 2 (SQS-0-0-5-11) was synthesized (FIG. 1B). Because no in vitro model exists to assess adjuvant activity, biological evaluation of aryl iodide 6 was carried out in a preclinical mouse vaccination model involving a multi-antigen formulation comprised of the immunogenic peptide MUC1 (prostate and breast cancer antigen, non-glycosylated tandem repeat) conjugated to the highly immunogenic KLH carrier protein (MUC1-KLH) and OVA, a reliable immunogen that induces both antibody and T-cell responses in mice. Antibody responses against each of the three antigens, co-administered with the adjuvant of interest, were determined by ELISA.
as §1

[5] = in vivo biodistribution of radioiodinated saponins; design: species or system mouse; details: with OVA, 24-96 h
Procedure: The aryl tin saponins (7, 9, 17, S9) were synthesized from the corresponding amine precursors (2, S4, 15, S8) by acylation with N-succinimidyl-4-(trimethylstannyl)benzoate 4 (Et3N, DMF, 21° C., 1-2.5 h). Radiolabeling was achieved by iodination of the aryl tin saponin (20 μg) with [^131I]—NaI and chloramine-T (methanol, 21° C., 1 min), followed by immediate HPLC purification. Solvents were removed by rotary evaporation at 35° C. and the radioiodinated probes were formulated in 0.9% saline for biodistribution studies. Co-elution of the radioiodinated probes with the corresponding cold saponins was used for quality control analysis.
Groups of five mice (naive, C57BL/6J female, 8-10 weeks of age) were injected subcutaneously with the radioiodinated saponin adjuvants of interest (˜[…]), the corresponding non-radiolabeled saponin ([…]), and OVA ([…]) in PBS ([…]). Mice were sacrificed at 24 h, 72 h, and 96 h post-injection. Tissues and organs were harvested and analyzed for distribution of radioactivity normalized to the weight of the organ (% ID/g, percent injected dose per gram). Statistical significance of the difference in recoveries (% ID/g) for the active and attenuated adjuvant was assessed for each tissue or organ using two-tailed unpaired Student's t-test with CI=95%.

[6] = test system: mice; assay: mouse vaccination with OVA antigen alone (FIG. 7B); format: in vivo; details: OVA (20 μg)
Procedure: FIG. 7A: Synthesis of negative control saponin 8 (SQS-0-3-7-18): (i) SOCl2, pyridine, CH2Cl2/DMF, 21° C., 2 h, 91%; (ii) 1. H2 (50 psi), Pd/C (Degussa), THF/EtOH (1:1), 21° C., 24 h; 2. TFA/H2O (4:1), 0° C., 3.3 h, RP-HPLC, 50% (2 steps); (iii) 4, Et3N, DMF, 21° C., 3 h, RP-HPLC, 68%; (iv) 5, Et3N, DMF, 21° C., 2.5 h, RP-HPLC, 53%. FIG. 7B: Biological evaluation of aryl iodide saponin 8 with OVA antigen. Mice were vaccinated with OVA (20 μg) according to the general procedure discussed herein. Median titers represented as red horizontal bars. Statistical significance compared to SQS-21 was assessed using two-tailed unpaired Student's t-test with CI=95%: *=0.01≤p≤0.05 (significant).
Groups of five mice (C57BL/6J, female, 6-8 weeks of age) were vaccinated with a three-component vaccine consisting of MUC1-KLH ([…]) and OVA ([…]), or a four-component vaccine that also included GD3-KLH (5 mg). […] Mouse sera were collected at day 72 and antibody titers against each antigen were determined by ELISA. Statistical significance of each antibody response compared to the no-adjuvant control was assessed using a two-tailed unpaired Student's t-test with CI=95%. As an initial, general assessment of toxicity, mouse weight loss was monitored on days 0, 1, 2, 3, and 7 after the first vaccination. […]

[7] = test system: C57BL/6J mice; assay: antibody subtyping of anti-MUC1 and anti-OVA IgG by class-specific ELISA; format: in vivo, mouse
Excerpt: Production of other mouse IgG subtypes, including IgG2a and IgG3, was low or negligible, as indicated by class-specific ELISA. Toxicity remained drastically lower for all four variants compared to NQS-21 and SQS-21 (FIG. 5f).

[8] = test system: C57BL/6J mice; assay: preclinical mouse vaccination model, four-component vaccine (MUC1-KLH, OVA, GD3-KLH), antibody titers by ELISA; format: in vivo; details: 20 and 50 μg doses
Procedure: as §1
These saponin variants were evaluated with a four-component vaccine comprised of MUC1-KLH, OVA, and the poorly immunogenic glycolipid GD3 (melanoma, neuroblastoma, sarcoma antigen) conjugated to KLH (GD3-KLH) (FIGS. 5B-E; see FIG. 16 for full data with both 20 and 50 μg doses).

[9] = biodistribution of radioiodinated ovalbumin with and without adjuvant 6; format: in vivo, mouse; details: presence and absence of active adjuvant 6
Procedure: In a complementary experiment, the biodistribution of [^131I]-OVA in the presence and absence of active adjuvant 6 was examined (FIG. 10). […] Thus, the influence of 6 upon OVA antigen biodistribution could not be assessed effectively and an alternative experimental approach was required.
Radiolabeled ovalbumin was synthesized by treating 20 μg of ovalbumin with [^131I]—NaI and Chloramine-T in methanol. The reaction mixture was diluted with 2 mL phosphate buffered saline (PBS) followed by centrifugal filtration at 2800 rpm for 12 min using a 30 kDa molecular weight cutoff filter. This process was repeated twice and the concentrated compound was then formulated in 1 mL 0.9% saline for biodistribution studies.

C[C@H]1O[C@@H](OC2C(O)C(NC(=O)CCCCCN)[C@H](CO)O[C@H]2OC(=O)C23CCC(C)(C)CC2C2=CCC4C5(C)CC[C@H](OC6OC(C(=O)O)[C@@H](O)[C@H](OC7OC[C@@H](O)[C@H](O)[C@@H]7O)[C@@H]6O[C@@H]6OC(CO)C(O)[C@@H](O)[C@@H]6O)[C@](C)(C=O)[C@@H]5CC[C@]4(C)[C@]2(C)C[C@@H]3O)C(O)C(O)C1O[C@@H]1OCC(O)C(O)C1O (stereo partly shown) [compound 2]
OVA-A647 at the site of injection when co-injected with the adjuvant [1]: observed at the site of injection
OVA-A647 localization to the nearest draining lymph nodes when co-injected with the adjuvant ([1]; dissected lymph nodes): increased accumulation of OVA-A647 with 3 but not 2
adjuvant activity [2]: inactive

C[C@H]1O[C@@H](OC2C(O)C(NC(=O)CCCCCNC(=O)c3ccc(I)cc3)[C@H](CO)O[C@H]2OC(=O)C23CCC(C)(C)CC2C2=CCC4C5(C)CC[C@H](OC6OC(C(=O)O)[C@@H](O)[C@H](OC7OC[C@@H](O)[C@H](O)[C@@H]7O)[C@@H]6O[C@@H]6OC(CO)C(O)[C@@H](O)[C@@H]6O)[C@](C)(C=O)[C@@H]5CC[C@]4(C)[C@]2(C)C[C@@H]3O)C(O)C(O)C1O[C@@H]1OCC(O)C(O)C1O (stereo partly shown) [compound 6]
toxicity assessed by mouse weight loss [3]: reduced toxicity compared to QS-21
antibody titers (anti-KLH, anti-MUC1, anti-OVA IgG) [4]: antibody titers comparable to both NQS-21
localization and retention at injection site and lymph nodes (conclusion) [5]: localizes to and is retained at the injection site and lymph nodes

CC1(C)CCC2(C(=O)NCCNC(=O)c3ccc(I)cc3)C(C1)C1=CCC3C4(C)CC[C@H](OC5OC(C(=O)O)[C@@H](O)[C@H](OC6OC[C@@H](O)[C@H](O)[C@@H]6O)[C@@H]5OC5OC(CO)[C@H](O)[C@H](O)[C@@H]5O)[C@](C)(C=O)[C@@H]4CC[C@]3(C)[C@]1(C)C[C@@H]2O (stereo partly shown) [compound 8]
adjuvant activity with OVA antigen [6]: poor adjuvant activity

C[C@@H]1O[C@@H](O[C@H]2[C@H](OC(=O)[C@]34CCC(C)(C)C[C@H]3C3=CC[C@@H]5[C@@]6(C)CC[C@H](O)[C@@](C)(C=O)[C@@H]6CC[C@@]5(C)[C@]3(C)C[C@H]4O)O[C@H](CO)[C@H](NC(=O)CCCCCNC(=O)c3ccc(I)cc3)[C@@H]2O)[C@H](O)[C@H](O)[C@H]1O[C@@H]1OC[C@@H](O)[C@H](O)[C@H]1O [compound 16]
toxicity assessed by mouse weight loss [3]: much lower toxicity than NQS-21 and SQS-21
KLH and MUC1 antibody responses ([4]; three-component vaccine, exception anti-MUC1 titers at lower dose (20 μg)): comparable to those of parent aryl iodide 6, NQS-21, and SQS-21

C[C@H]1O[C@@H](OC2C(O)C(NC(=O)CCCCCNC(=O)c3ccc(I)cc3)[C@H](CO)O[C@H]2OC(=O)[C@]23CCC(C)(C)CC2C2=CCC4C5(C)CC[C@H](O)C(C)(C)[C@@H]5CC[C@]4(C)[C@]2(C)CC3)C(O)C(O)C1O[C@@H]1OCC(O)C(O)C1O (stereo partly shown) [compound 18]
toxicity assessed by mouse weight loss [3]: low toxicity
antibody titers (anti-KLH, anti-MUC1, anti-OVA IgG) [4]: lower antibody titers against all three antigens compared to the parent quillaic acid derivative 16

C[C@H]1O[C@@H](OC2C(O)C(NC(=O)CCCCCNC(=O)c3ccc(I)cc3)[C@H](CO)O[C@H]2OC(=O)[C@]23CCC(C)(C)CC2C2=CCC4C5(C)CC[C@H](O)[C@](C)(CO)[C@@H]5CC[C@]4(C)[C@]2(C)CC3O)C(O)C(O)C1O[C@@H]1OCC(O)C(O)C1O (stereo partly shown) [compound 19]
IgG subtypes of anti-MUC1 and anti-OVA antibodies [7]: significant bias toward the mouse IgG1 and IgG2b subtype
antibody responses (anti-KLH, anti-MUC1, anti-OVA IgG, anti-GD3 IgM and IgG) [8]: antibody titers slightly below those of echinocystic acid derivative 20; also recorded: antibody responses similar to the complete, branched trisaccharide-containing saponin 6

C[C@H]1O[C@@H](OC2C(O)C(NC(=O)CCCCCNC(=O)c3ccc(I)cc3)[C@H](CO)O[C@H]2OC(=O)C23CCC(C)(C)CC2C2=CCC4C5(C)CC[C@H](O)C(C)(C)[C@@H]5CC[C@]4(C)[C@]2(C)C[C@@H]3O)C(O)C(O)C1O[C@@H]1OCC(O)C(O)C1O (stereo partly shown) [compound 20]
IgG subtypes of anti-MUC1 and anti-OVA antibodies [7]: significant bias toward the mouse IgG1 and IgG2b subtype
antibody responses (anti-KLH, anti-MUC1, anti-OVA IgG, anti-GD3 IgM and IgG) [8]: highest antibody responses to all four antigens; also recorded: immunostimulatory activity generally rivaling that of SQS-21
toxicity (mouse weight loss) ([3]; four-component vaccine, one week after first injection): dramatically reduced toxicity compared to the natural product

C[C@H]1O[C@@H](OC2C(O)C(NC(=O)CCCCCNC(=O)c3ccc(I)cc3)[C@H](CO)O[C@H]2OC(=O)C23CCC(C)(C)CC2C2=CCC4C5(C)CC[C@H](O)[C@](C)(C=O)[C@@H]5CC[C@]4(C)[C@]2(C)CC3)C(O)C(O)C1O[C@@H]1OCC(O)C(O)C1O (stereo partly shown) [compound 21]
antibody responses (anti-KLH, anti-MUC1, anti-OVA IgG, anti-GD3 IgM and IgG) [8]: lower antibody responses in all cases except the anti-GD3 IgG response

C[C@@H]1O[C@@H](O[C@H]2[C@H](OC(=O)[C@]34CCC(C)(C)C[C@H]3C3=CC[C@@H]5[C@@]6(C)CC[C@H](O)[C@@](C)(CO)[C@@H]6CC[C@@]5(C)[C@]3(C)CC4)O[C@H](CO)[C@H](NC(=O)CCCCCNC(=O)c3ccc(I)cc3)[C@@H]2O)[C@H](O)[C@H](O)[C@H]1O[C@@H]1OC[C@@H](O)[C@H](O)[C@H]1O [compound 22]
antibody responses (anti-KLH, anti-MUC1, anti-OVA IgG, anti-GD3 IgM and IgG) [8]: lower antibody responses in all cases except the anti-GD3 IgG response

B1: [131I]-OVA: radioiodinated ovalbumin antigen (protein, UniProt P01012 2-386, looked up)
Ovalbumin: GSIGAASMEFCFDVFKELKVHHANENIFYCPIAIMSALAMVYLGAKDSTRTQINKVVRFDKLPGFGDSIEAQCGTSVNVHSSLRDILNQITKPNDVYSFSLASRLYAEERYPILPEYLQCVKELYRGGLEPINFQTAADQARELINSWVESQTNGIIRNVLQPSSVDSQTAMVLVNAIVFKGLWEKAFKDEDTQAMPFRVTEQESKPVQMMYQIGLFRVASMASEKMKILELPFASGTMSMLVLLPDEVSGLEQLESIINFEKLTEWTSSNVMEERKIKVYLPRMKMEEKYNLTSVLMAMGITDVFSSSANLSGISSAESLKISQAVHAAHAEINEAGREVVGSAEAGVDAASVSEEFRADHPFLFCIKHIATNAVLFFGRCVSP
modifications: 131I radiolabel
notes: radioiodinated ovalbumin antigen
thyroid uptake of [131I]-OVA [9]: thyroid uptake was also high
